This note sets out measurements from ChEMBL document CHEMBL1201862, “PubChem BioAssay data set” (2004).

Structures are written as SMILES.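 48-hour exposure; five concentrations; linearly interpolated endpoints. The concentration for 50% growth inhibition is given as GI50.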 Activity calls are given as the source filed them. No stated cut-off is given here; in the data, active = GI50 up to about 1.1 µM and inactive = higher.

Some test systems named below: HL-60; NCI-H226; HCT-15; HT-29; SW-620; SF-268; SK-MEL-28; A549; K562; SF-539; IGROV-1; PC-3; HOP-92; NCI-H522; MDA-MB-231; CCRF-CEM; M14; SN12C; SF-295; UACC-62.
Holding throughout (experiment): growth of human tumour cells (NCI), 48 h

For `C#C/C=C\CCCCCCCCCCCCCC/C=C\CCCCC#CC(O)C#CCCCC/C=C\CCCCCC/C=C/C(O)C#C` (stereo not given), the GI50 is 13 µM (inactive) in the assay on HL-60; 32.1 µM (inactive) in the assay on NCI-H226; 22.5 µM in the assay with HCT-15; 18.3 µM (inactive) in the assay with HT-29; 7.5 µM (inactive) in the assay with SW-620; 17.2 µM (inactive) in the assay with SF-268. For the same compound, the GI50 is 21 µM (inactive) in the assay with SK-MEL-28; 12.1 µM (inactive) in the assay on A549; 23.8 µM (inactive) in the assay on K562; 29.6 µM (inactive) in the assay with SF-539; 13.6 µM (inactive) in the assay on IGROV-1; 19.1 µM (inactive) with PC-3. The GI50 is 16.4 µM (inactive) with HOP-92; 5.7 µM (inactive) in the assay with NCI-H522; 34.2 µM (inactive) in the assay on MDA-MB-231; 5.25 µM (inactive) in the assay with CCRF-CEM; 12.9 µM (inactive) in the assay with M14; 24.2 µM (inactive) in the assay with SN12C. Besides, the GI50 in the assay on SF-295 was 17.7 µM (inactive); in the assay with UACC-62, 11.8 µM (inactive).
In the case of `CC(C)=C[C@@H]1C[C@H](C)c2c(O)cc(C)c3c2C1=C(C)C(=O)C3=O` [ELISABATIN A], the GI50 in the assay with HL-60 was 21.9 µM (inactive); with NCI-H226, 16.3 µM (inactive); in the assay on HCT-15, 13.6 µM; in the assay on HT-29, 19.4 µM (inactive); in the assay with SW-620, 16.1 µM (inactive); in the assay with SF-268, 15 µM (inactive). Moreover, the GI50 in the assay on SK-MEL-28 is 15.5 µM (inactive); in the assay on A549, 10.1 µM (inactive); in the assay with K562, 17.2 µM (inactive); in the assay with SF-539, 17.9 µM (inactive); with IGROV-1 it was 16.7 µM (inactive); with PC-3, 10.5 µM (inactive). Also, the GI50 was 13.4 µM (inactive) with HOP-92; 15.3 µM (inactive) with NCI-H522; 15.6 µM (inactive) in the assay with MDA-MB-231; 22.4 µM (inactive) in the assay on CCRF-CEM; 14 µM (inactive) in the assay on M14; 15 µM (inactive) with SN12C. Besides, the GI50 in the assay with SF-295 and in the assay with UACC-62 was 14.7 µM (inactive) each time.
On to `COC(=O)C1(Cc2cccc(C)c2)Cc2c(C)cccc2C1=O` (stereo not given), for which the GI50 with HL-60 was > 100 µM (inactive); with NCI-H226, 44.9 µM (inactive); in the assay on HCT-15 it was 32.1 µM; in the assay with HT-29, 29.6 µM (inactive); in the assay with SW-620, 31.4 µM (inactive); in the assay on SF-268, 58.5 µM (inactive). The GI50 with SK-MEL-28 is > 100 µM (inactive); with A549, 38.6 µM (inactive); in the assay with K562 it was 35.9 µM (inactive); with SF-539 it was 38.4 µM (inactive); with IGROV-1, 46.9 µM (inactive); in the assay with PC-3, 27.2 µM (inactive). For the same compound, the GI50 is 30.4 µM (inactive) in the assay on HOP-92; 22.6 µM (inactive) in the assay with NCI-H522; 52.8 µM (inactive) in the assay on MDA-MB-231; 61.8 µM (inactive) in the assay with CCRF-CEM; 34.4 µM (inactive) in the assay on M14; 44.9 µM (inactive) in the assay with SN12C. Further, the GI50 in the assay on SF-295 was 38.2 µM (inactive); in the assay with UACC-62, 46.8 µM (inactive).
For `NC(=S)SCCC(=O)O`, the GI50 in the assay on HL-60 is > 100 µM (inactive); in the assay with NCI-H226, > 100 µM (inactive); with HCT-15, greater than 100 µM; in the assay with HT-29, > 100 µM (inactive); with SW-620 it was > 100 µM (inactive); in the assay on SF-268, > 100 µM (inactive). Also, the GI50 with SK-MEL-28, in the assay on A549, with K562, in the assay on SF-539, in the assay with IGROV-1 and in the assay with PC-3 was > 100 µM (inactive) in each case. The GI50 in the assay on HOP-92, with NCI-H522, in the assay with MDA-MB-231, in the assay on CCRF-CEM, in the assay on M14 and with SN12C was > 100 µM (inactive) in each case. Also, the GI50 in the assay with SF-295 and in the assay on UACC-62 was > 100 µM (inactive) in each case.
